Entries after “also recorded” stand apart in the source; their conditions may differ. Residues, ends and D or L forms follow the SMILES beside them. *: point of attachment. Cbz = O=C(OCc1ccccc1)*; CH2F = FC*
Experiments:
[1] = tested on: CAG NOD/SCID myeloma model; details: 150 mg/kg; by day 9; cited from earlier work
[2] = tested on: retinoblastoma (Rb)-positive tumor cells; details: cited from earlier work
[3] = tested on: Luc+GFP+MM1.S cells; test: NOD/SCID xenograft human myeloma model (bioluminescence imaging); assay type: in vivo, NOD/SCID mice; details: for MMD in human myeloma cells vs mouse BM cells in vivo: bortezomib 0.25 mg/kg, with or without PD 0332991 150 mg/kg pretreatment; for tumor development (BLI): day 8, PD 0332991 150 mg/kg daily 3 days, bortezomib 0.25 mg/kg days 4 and 7
[4] = tested on: CDK4 and CDK6; details: cited from earlier work
[5] = tested on: HMCLs, including MM1.S; test: BrdU-uptake and DNA content (cell cycle) in human myeloma cell lines; assay type: cell-based; details: for proportion of cells in S phase: PD 0332991 0.25 μM 24 h
Procedure: Cells were incubated with 5-bromo-2-deoxyuridine (BrdU, 5 μg/ml; Sigma) at 37° C. for 30 min (HMCLs) or 16 h (BMM cells). Cells were fixed with 70% ethanol overnight at 4° C., incubated with 0.4 mg/ml pepsin for 20 min at room temperature and 2N HCl for 10 min at 37° C. Samples were washed with 50 mM sodium borate (pH 8.5) and then 0.1% BSA/PBS. To detect BrdU, cells were incubated with a FITC-conjugated anti-BrdU mouse mAb (Roche Diagnostics, Pleasanton, Calif.) for 30 min at room temperature. For DNA content analysis, cells were incubated further with 50 μg/ml propidium iodide and 100 U/ml ribonuclease A (Sigma) for 30 min at 37° C. Samples were analyzed by flow cytometry.

[6] = tested on: MM1.S and MM1.R human myeloma cell lines; test: Cytotoxic killing of myeloma cell lines (viability, mitochondrial membrane depolarization)
[7] = tested on: CDK4 and CDK6; test: Phase I/II clinical trial in multiple myeloma; assay type: in vivo; details: within the tolerable dose in humans; preliminary data
[8] = tested on: human osteoclast cultures; test: Osteoclast formation from bone marrow cells of multiple myeloma patients; assay type: cell-based
Procedure: Non-adherent mononuclear bone marrow cells from multiple myeloma patients were cultured in the presence of macrophage colony stimulating factor (M-CSF) and Receptor Activator for Nuclear Factor κ[…] (RANKL) for three weeks.

[9] = tested on: at least thirty-eight other types of kinases, including CDK2; details: at concentrations below 5 μM, at least 38 other kinases; cited from earlier work
[10] = tested on: CDK4/6; details: mantle cell lymphoma and acute myeloid leukemia cells ex vivo; cited from earlier work
[11] = tested on: IL-6Rα, gp130, Stat3; test: IL-6 signaling in myeloma cells (surface IL-6Rα, gp130, p-Stat3); assay type: cell-based, human; details: for expression of surface IL-6Rα (gp80): PD 0332991 0.25 μM, bortezomib 4 nM; for surface gp130: PD 0332991, bortezomib 4 nM, or both
Procedure: Viable cells were obtained by Ficoll density centrifugation (GE Healthcare, Piscataway, N.J.). Cytosolic and mitochondrial fractions were isolated as described (Yang et al., 1997). Whole cells or purified mitochondria were lysed in a buffer containing 10 mM Tris-HCl, pH 7.5, 150 mM NaCl, 5 mM EDTA, 1% Triton X-100, and protease inhibitors. For detection of phosphorylated Stat3, cells were lysed in a buffer containing 20 mM Tris, pH 7.5, 150 mM NaCl, 1 mM EDTA, 1 mM EGTA, 1% Triton X-100, 2.5 mM sodium pyrophosphate, 1 mM β-glycerophosphate, 1 mM Na3VO4, and protease inhibitors. Immunoblotting was performed as described in Huang et al. (2004). Signals were developed with the SuperSignal West Femto Maximum Sensitivity Substrate (Pierce Biotechnology, Rockford, Ill.).

[12] = tested on: myeloma, AML and solid tumor xenograft; details: cited from earlier work
[13] = tested on: MM1.S cells; test: Apoptosis pathway in myeloma cells (caspase/PARP cleavage, Bcl-2 family mRNA and protein, Smac release); assay type: cell-based, human
Procedure: Total RNA was isolated using the TRIzol reagent (Invitrogen). […] Reactions were carried out in triplicate in the ABI PRISM 7900 HT Sequence Detection System. The relative amount of products was determined by the comparative Ct method according to the manufacturer's instructions. Viable cells were obtained by Ficoll density centrifugation (GE Healthcare, Piscataway, N.J.). Cytosolic and mitochondrial fractions were isolated as described (Yang et al., 1997). Whole cells or purified mitochondria were lysed in a buffer containing 10 mM Tris-HCl, pH 7.5, 150 mM NaCl, 5 mM EDTA, 1% Triton X-100, and protease inhibitors. For detection of phosphorylated Stat3, cells were lysed in a buffer containing 20 mM Tris, pH 7.5, 150 mM NaCl, 1 mM EDTA, 1 mM EGTA, 1% Triton X-100, 2.5 mM sodium pyrophosphate, 1 mM β-glycerophosphate, 1 mM Na3VO4, and protease inhibitors. Immunoblotting was performed as described in Huang et al. (2004). Signals were developed with the SuperSignal West Femto Maximum Sensitivity Substrate (Pierce Biotechnology, Rockford, Ill.). For immunoprecipitation, lysate (50 μg of protein) was precleared with 20 μl of Protein G PLUS-agarose beads (Santa Cruz Biotechnology, Santa Cruz, Calif.) and incubated with rabbit anti-Bim, anti Bcl-XL (Cell signaling Technology), anti-Mcl1 (Santa Cruz), anti-Bak (Sigma) or mouse anti-Bcl-2 (DakoCytomation, Carpinteria, Calif.) overnight at 4° C. The immunocomplexes were collected by incubation with Protein G PLUS-agarose beads (Santa Cruz) and centrifugation. These immunocomplex samples were then analyzed by immunoblotting.

[14] = tested on: primary CD138+ human BM myeloma (BMM) cells; test: Killing of primary myeloma cells co-cultured with HS-5 stromal cells; details: for reduction of live BMM cells: 24 hours ex vivo, PD 0332991 1-2 μM

With `CC(=O)c1c(C)c2cnc(Nc3ccc(N4CCNCC4)cn3)nc2n(C2CCCC2)c1=O` [PD 0332991, 6-acetyl-8-cyclopentyl-5-methyl-2-[5-piperazin-1-yl-pyridin-2-ylamino)-8H-pyrido[2,3-d]pyrimidin-7-one] as the compound, how does the tumor burden [1] read?
The tumor burden was “reduced tumor burden profoundly”.

What about the anti-proliferative activity [2] of the same compound?
The anti-proliferative activity was “potent anti-proliferative agent”.

What about the “MMD in human myeloma cells vs mouse BM cells in vivo” value [3] of the same compound?
Its value is “augmented”.

What about the “tumor development (BLI)” value [3] of the same compound?
The value was “only modestly reduced”.

What about the IC50 ([4]; freshly isolated primary human BMM cells and HMCLs ex vivo, read-out: IC50, inhibition of CDK4 and CDK6) of the same compound?
Its IC50 is 60 nM.

And the “cell cycle outcome of CDK4/CDK6 inhibition” value ([4]; primary BMM cells and HMCLs)?
Its value is “exclusive G1 arrest unaccompanied by apoptosis; also recorded: exclusive G1 arrest in the absence of apoptosis”.

What about the “time G1 arrest and synchronous S phase entry were maintained in the absence of apoptosis” value ([5]; MM1.S cells cultured with PD 0332991) of the same compound?
Its value is “at least 6 days”.

What about the G1 arrest ([5]; PD 0332991 0.25 μM) of the same compound?
The G1 arrest was “complete G1 arrest; also recorded: marked accumulation of G1 cells”.

And the “proportion of cells in S phase” value ([5]; 12 hours after removal)?
The value was 65%.

And the “proportion of cells in S phase” value ([5]; 18 hours after removal)?
Its value is 67%.

And the “killing of Dex-resistant MM1.R cells by low dose bortezomib after PD 0332991” value ([6]; MM1.R cells, 24 hours)?
Its value is “virtual eradication of cells”.

What about the “bortezomib killing after prior G1 arrest” value ([6]; PD 0332991 24 h, then bortezomib at high dose (250 nM) for 1 h, analysed 6 h later) of the same compound?
Its value is “profoundly enhanced”.

What about the “killing by low dose bortezomib added after PD 0332991 vs concurrently” value ([6]; bortezomib 2-6 nM added 24 or 48 hours after PD 0332991) of the same compound?
The value was “greater”.

What about the “MMD and viability, bortezomib added upon removal of PD 0332991 vs unsynchronized cells” value ([6]; bortezomib 4 or 6 nM, continuous) of the same compound?
The value was “greater MMD and loss of viability”.

And the “bortezomib killing during synchronous G1-S transition” value ([6]; bortezomib pulse at 4 hours post PD 0332991 removal)?
The value was “augmented further”.

And the “MMD and cytotoxic killing by low dose dexamethasone after G1 arrest” value ([6]; dexamethasone 5-50 nM)?
The value was “augmented”.

And the “inhibition of CDK4 and CDK6 and tumor cell division in patients” value [7]?
The value was “completely inhibits”.

And the IC50 ([8]; Homo sapiens, Osteoclast, 504 h, treatment for 3 weeks)?
The IC50 was 50 nM.

And the “time course of treatment on osteoclast formation” value ([8]; first week, but not second or third week)?
Its value is “sufficient to inhibit osteoclast formation”.

What about the “activity against other kinases” value [9] of the same compound?
Its value is “does not cross react; also recorded: little or no activity”.

And the “inhibition of CDK4/6” value [10]?
Its value is “effectively inhibited”.

What about the Stat3 protein [11] of the same compound?
Its Stat3 protein is “reduction of Stat3 protein”.

And the “expression of surface IL-6Rα (gp80)” value [11]?
The value was “virtually eliminated”.

And the “surface gp130” value [11]?
The value was “only modestly”.

What about the “myeloma tumor growth upon discontinuation” value ([12]; after discontinuation of PD 0332991) of the same compound?
Its value is “resumed upon discontinuation”.

And the tumor growth ([12]; myeloma, AML and solid tumor xenograft models)?
The tumor growth was “suppressed tumor growth”.

And the “activation of caspase-8 by bortezomib after prior PD 0332991 treatment” value [13]?
The value was “similarly augmented”.

And the “Noxa mRNA and protein” value ([13]; following PD 0332991-induced G1 arrest)?
The value was “no longer detectable”.

What about the “reduction of live BMM cells” value [14] of the same compound?
The value was “greater”.

What about the “sensitization of BMM cells from bortezomib-refractory patients (MM10)” value ([14]; PD 0332991 pretreatment 4 hours) of the same compound?
Its value is “sufficient to sensitize”.

What about the “sensitization of other bortezomib-refractory BMM cells (MM 8, MM 9)” value ([14]; PD 0332991 pretreatment 24 hours) of the same compound?
The value was “susceptible to bortezomib killing”.

And the “bortezomib killing after PD 0332991 pretreatment” value ([14]; pretreatment 4-24 hours)?
Its value is “markedly augmented”.

For `COC(=O)C[C@H](NC(=O)[C@H](C)NC(=O)[C@@H](NC(=O)OCc1ccccc1)C(C)C)C(=O)CF` [ZVAD-FMK] (Cbz-Val-Ala-Asp(OMe)-CH2F), which “killing by PD-B in the presence of pan-caspase inhibitor” value [13] is on record?
The value was “completely inhibited”.

Which results are given for `CC(C)C[C@H](NC(=O)[C@H](Cc1ccccc1)NC(=O)c1cnccn1)B(O)O` [bortezomib]?
MMD in human myeloma cells vs mouse BM cells in vivo [3]: differentially induced; tumor development (BLI) [3]: only modestly reduced; cell cycle effect of bortezomib alone ([5]; bortezomib 6 nM alone): striking loss of cells in the S phase; expression of surface IL-6Rα (gp80) [11]: did not vary; surface gp130 [11]: only modestly; TRAIL mRNA ([13]; q-RT-PCR): marginal increase; Bim and MCL-1 mRNAs ([13]; q-RT-PCR, bortezomib 4 nM 12 h, with or without PD 0332991 0.25 μM 24 h): coordinately elevated; reduction of live BMM cells [14]: greater
